Test results published in patent US20240415819A1, “MACROCYCLIC COMPOUNDS AS PROTEASOME SUBUNIT BETA TYPE-5 INHIBITORS” (Lead Discovery Center GmbH, priority 2021, published 2024).

Key:
[1] = target: T1, β5 subunit of the human constitutive proteasome (CPS) (Homo sapiens, UniProt P28074); experiment: β5 inhibition assay, human constitutive proteasome (Suc-LLVY-AMC); format: biochemical; details: IC50 class, Suc-LLVY-AMC substrate
T1 construct: purchased Boston Biochem E-360
Procedure: The enzymatic activity of the β5 subunit of the human constitutive proteasome (CPS) is analyzed. In another assay, which differs from the assay of the human constitutive proteasome only in using the human immunoproteasome (IPS) the enzymatic activity of the β5 subunit of the human immunoproteasome (IPS) is analyzed. […] Inhibition is indicated as IC50 [nM] (“-”=not measured).

[2] = system: hPMBC; experiment: Chymotrypsin-like ProteasomeGlo assay in hPBMC; format: cell-based; details: Homo sapiens; read-out: Pglo hPBMC
Text: Chymotrypsin-like ProteasomeGlo assay in the B-cells isolated from PBMC's following compound addition (IC50). • 1. PBMC's will be isolated from human blood followed by B-cell isolation from the PBMC's using the Miltenyi Isolation Kit. • 2. This experiment will use the Chymotrypsin-like ProteasomeGlo read-out to generate IC50's following compound treatment. • 3. Dilute all compounds 1:100 for the assay. • 4. […] Repeat the DMSO transfer with lane 12. • 5. Lane 12 should not be seeded with any cells. Only medium! • 6. For all steps, make sure the samples and reagents remain cool! • 7. While dealing with the buffy coats, be careful to not let any exposed skin to be in direct contact with the blood.
For the initial steps and to make processing the buffy coats easier, separately process the buffy coats. • a. Cut the tube attached to the buffy coats carefully using a clean, sterile and fresh scalpel. • b. Transfer the blood into 2 individual 50 ml falcons. • c. Add an equal volume of DPBS to the blood in the falcons. • d. Add ˜20 ml of lymphocyte separating medium to two 50 ml falcons. • e. Carefully pour 15-20 ml of the blood+DPBS mix from step c. onto the lymphocyte separating medium from step d. • f. Centrifuge the falcons with the lymphocyte separating medium+blood mix at 800×g for 15 minutes using a swing-out rotor. • g. Following centrifugation, carefully remove the falcons from the centrifuge. • h. The following layers will be observed: • i. Aspirate the plasma layer off carefully without disturbing the different layers. • j. Remove the cell pellet using a pipette into two fresh 50 ml falcons. • k. Fill the falcons with the cells up to 50 ml with DPBS. • l. Centrifuge the falcons at 250×g for 10 minutes using a swing-out rotor (Brake-off). • m. Aspirate the complete DPBS off the cells without disturbing the cell pellet at the bottom of the falcon. • n. Re-suspend the cell pellet in 10 ml of 1×RBC lysis buffer. • o. Incubate the falcons at room temperature in the dark for 10 minutes. • p. After RBC lysis, centrifuge the tubes at 250×g for 10 minutes using a swing-out rotor (brake-off). • (*Note: If the cell pellet is still red or light red, repeat steps n. to p.!) • q. Re-suspend the cell pellet in DPBS up to 50 ml in the falcon. • r. Centrifuge the falcons at 250×g for 10 minutes using a swing-out rotor (Brake-off). • s. Aspirate the DPBS off the cells without disturbing the cell pellet at the bottom of the falcon. • t. Repeat the wash step as described in steps q. to s. 2× times more (total number of washes is 3×). • u. Aspirate the DPBS completely off the cell pellet after the last wash without disturbing the cell pellet. • v. Re-suspend the cell pellet in 20 ml of PBMC cell medium. • w.
• a. Remove the plates with cells from the incubator. • b. Take all the plates including the compound plate, intermediate plate and Staurosporine plate to the ECHO. • c. Click on “Open” in the ECHO software and select the protocol “QLI5_25ul_30 uM-Grenier”. • d. Follow the on-screen prompts and instructions once you click “Start” to insert the compound plate, intermediate plate and destination plates. • e. Change the final number of destination plates on the program. • f. Follow the on-screen prompts and instructions once you click “Start” to load the Staurosporine and destination plates. • g. Once all the compounds, DMSO and Staurosporine have been transferred, place the destination plates in a wet tissue box. • h. Place the destination plates back into the incubator and incubate at 37° C., 5% CO2 for 105 minutes. • i. Re-seal all the compound+Stauro diamond and intermediate plates and store in the dark. Chymotrypsin like ProteasomeGlo Assay • 1. Thaw the components of the ProteasomeGlo assay at room temperature including the ProteasomeGlo Buffer, the lyophilized Luciferin Detection Reagent and the Suc-LLVY-Glo Substrate. • 2. […]

Cc1ccc2cc1CNC(=O)[C@H](CCc1ccccc1)NC(=O)[C@@H](NC(=O)OCc1ccccc1)CC(=O)N1CCCC(CCO2)C1 (stereo partly drawn) [Compound 7, benzyl ((9S,12S)-5^4-methyl-8,11,14-trioxo-9-phenethyl-4-oxa-7,10-diaza-1(3,1)-piperidina-5(1,3)-benzenacyclotetradecaphane-12-yl)carbamate]
IC50 [1]: < 100 nM
IC50 [2]: < 100 nM

Cc1ccc2cc1CNC(=O)[C@H](CCc1ccccc1)NC(=O)[C@@H](NC(=O)C(C)(C)C)CC(=O)N1CCCC(CCO2)C1 (stereo partly drawn) [Compound 27, N-((9S,12S)-5^4-methyl-8,11,14-trioxo-9-phenethyl-4-oxa-7,10-diaza-1(3,1)-piperidina-5(1,3)-benzenacyclotetradecaphane-12-yl)pivalamide]
IC50 [1]: < 100 nM

Cc1ccc2cc1CNC(=O)[C@H](CCc1ccccc1)NC(=O)[C@@H](NC(=O)CC(C)(C)C)CC(=O)N1CCCC(CCO2)C1 (stereo partly drawn) [Compound 28, 3,3-dimethyl-N-((9S,12S)-5^4-methyl-8,11,14-trioxo-9-phenethyl-4-oxa-7,10-diaza-1(3,1)-piperidina-5(1,3)-benzenacyclotetradecaphane-12-yl)butanamide]
IC50 [1]: < 100 nM
IC50 [2]: 100 to 500 nM

Cc1ccc2cc1CNC(=O)[C@H](CCc1ccccc1)NC(=O)[C@@H](NC(=O)Cc1ccccc1)CC(=O)N1CCCC(CCO2)C1 (stereo partly drawn) [Compound 29, N-((9S,12S)-5^4-methyl-8,11,14-trioxo-9-phenethyl-4-oxa-7,10-diaza-1(3,1)-piperidina-5(1,3)-benzenacyclotetradecaphane-12-yl)-2-phenylacetamide]
IC50 [1]: < 100 nM

Cc1ccc2cc1CNC(=O)C(CCc1ccccc1)NC(=O)C(NC(=O)CCc1ccccc1)CC(=O)N1CCCC(CCO2)C1 [Compound 30, N-((9S,12S)-5^4-methyl-8,11,14-trioxo-9-phenethyl-4-oxa-7,10-diaza-1(3,1)-piperidina-5(1,3)-benzenacyclotetradecaphane-12-yl)-3-phenylpropanamide]
IC50 [1]: < 100 nM

Cc1ccc2cc1CNC(=O)[C@H](CCc1ccccc1)NC(=O)[C@@H](NC(=O)c1nc3ccccc3[nH]1)CC(=O)N1CCCC(CCO2)C1 (stereo partly drawn) [Compound 31, N-((9S,12S)-5^4-methyl-8,11,14-trioxo-9-phenethyl-4-oxa-7,10-diaza-1(3,1)-piperidina-5(1,3)-benzenacyclotetradecaphane-12-yl)-1H-benzo[d] imidazole-2-carboxamide]
IC50 [1]: < 100 nM

Cc1ccc2cc1CNC(=O)[C@H](CCc1ccccc1)NC(=O)[C@@H](NC(=O)c1ncccn1)CC(=O)N1CCCC(CCO2)C1 (stereo partly drawn) [Compound 32, N-((9S,12S)-5^4-methyl-8,11,14-trioxo-9-phenethyl-4-oxa-7,10-diaza-1(3,1)-piperidina-5(1,3)-benzenacyclotetradecaphane-12-yl)pyrimidine-2-carboxamide]
IC50 [1]: < 100 nM

CC(=O)N[C@H]1CC(=O)N2CCCC(CCOc3ccc(C)c(c3)CNC(=O)[C@H](CCc3ccccc3)NC1=O)C2 (stereo partly drawn) [Compound 33, N-((9S,12S)-5^4-methyl-8,11,14-trioxo-9-phenethyl-4-oxa-7,10-diaza-1(3,1)-piperidina-5(1,3)-benzenacyclotetradecaphane-12-yl)acetamide]
IC50 [1]: < 100 nM

Cc1ccc2cc1CNC(=O)[C@H](CCc1ccccc1)NC(=O)[C@@H](Nc1ncccn1)CC(=O)N1CCCC(CCO2)C1 (stereo partly drawn) [Compound 34, (9S,12S)-5^4-methyl-9-phenethyl-12-(pyrimidin-2-ylamino)-4-oxa-7,10-diaza-1(3,1)]
IC50 [1]: < 100 nM

Cc1ccc2cc1CNC(=O)[C@H](CCc1ccccc1)NC(=O)[C@@H](NC1COC1)CC(=O)N1CCCC(CCO2)C1 (stereo partly drawn) [Compound 35, (9S,12S)-5^4-methyl-12-(oxetan-3-ylamino)-9-phenethyl-4-oxa-7,10-diaza-1(3,1)-piperidina-5(1,3)-benzenacyclotetradecaphane-8,11,14-trione]
IC50 [1]: < 100 nM

Cc1ccc2cc1CNC(=O)[C@H](CCc1ccccc1)NC(=O)[C@@H](NC(=O)OCc1ccccc1)CCCC(=O)N1CCCC3(CC(C3)O2)C1 [Compound 283, benzyl ((7S,10S)-34-methyl-6,9,14-trioxo-7-phenethyl-2-oxa-5,8-diaza-15(3,1)-piperidina-3(1,3)-benzena-1(1,3)-cyclobutanapentadecaphane-10-yl)carbamate]
IC50 [1]: 500 to 1000 nM
IC50 [2]: 500 to 1000 nM

CC(=O)N[C@H]1CCCC(=O)N(C)CCCCOc2ccc(C)c(c2)CNC(=O)[C@H](CCc2ccccc2)NC1=O [Compound 295, N-(1^4,7-dimethyl-8,13,16-trioxo-15-phenethyl-2-oxa-7,14,17-triaza-1(1,3)-benzenacyclooctadecaphane-12-yl)acetamide]
IC50 [1]: < 100 nM
IC50 [2]: 100 to 500 nM

CC(=O)N[C@H]1CC(=O)N(C)CCCCOc2ccc(C)c(c2)CNC(=O)[C@H](CCc2ccccc2)NC1=O [Compound 296, N-(1^4,7-dimethyl-8,11,14-trioxo-13-phenethyl-2-oxa-7,12,15-triaza-1(1,3)-benzenacyclohexadecaphane-10-yl)acetamide]
IC50 [1]: 500 to 1000 nM
IC50 [2]: 100 to 500 nM

CC(=O)N[C@H]1CCC(=O)N2CC3CC(Oc4ccc(C)c(c4)CNC(=O)[C@H](CCc4ccccc4)NC1=O)C3C2 (stereo partly drawn) [Compound 299, N-(3^4-methyl-6,9,13-trioxo-7-phenethyl-2-oxa-13,5,8-triaza-1(6,3)-bicyclo[3.2.0]heptana-3(1,3)-benzenacyclotridecaphane-10-yl)acetamide]
IC50 [1]: > 5000 nM
IC50 [2]: 1000 to 5000 nM

Cc1ccc2cc1CNC(=O)[C@H](CCc1ccccc1)NC(=O)[C@@H](NC(=O)OCc1ccccc1)CC(=O)N1CCCC3(CC(C3)O2)C1 [Compound 300]
IC50 [1]: 100 to 500 nM
IC50 [2]: 500 to 1000 nM

Cc1ccc2cc1CNC(=O)[C@H](CCc1ccccc1)NC(=O)[C@@H](NC(=O)OCc1ccccc1)CCC(=O)N1CCCC3(CC(C3)O2)C1 [Compound 301, benzyl ((7S,10S)-3^4-methyl-6,9,13-trioxo-7-phenethyl-2-oxa-5,8-diaza-14(3,1)-piperidina-3(1,3)-benzena-1(1,3)-cyclobutanatetradecaphane-10-yl)carbamate]
IC50 [1]: 1000 to 5000 nM
IC50 [2]: 1000 to 5000 nM

Cc1ccc2cc1CNC(=O)[C@H](CCc1ccccc1)NC(=O)[C@@H](NC(=O)Cc1csc(N)n1)CC(=O)N1CCCC(CCO2)C1 (stereo partly drawn) [Compound 302, 2-(2-aminothiazol-4-yl)-N-((9S,12S)-5^4-methyl-8,11,14-trioxo-9-phenethyl-4-oxa-7,10-diaza-1(3,1)-piperidina-5(1,3)-benzenacyclotetradecaphane-12-yl)acetamide]
IC50 [1]: < 100 nM
IC50 [2]: < 100 nM

Cc1ccc2cc1CNC(=O)[C@H](CCc1ccccc1)NC(=O)[C@@H](NC(=O)C(C)c1ccc(N)cc1)CC(=O)N1CCCC(CCO2)C1 (stereo partly drawn) [Compound 309, 2-(4-aminophenyl)-N-((9S,12S)-5^4-methyl-8,11,14-trioxo-9-phenethyl-4-oxa-7,10-diaza-1(3,1)-piperidina-5(1,3)-benzenacyclotetradecaphane-12-yl)propanamide]
IC50 [1]: < 100 nM
IC50 [2]: < 100 nM

Cc1ccc2cc1CNC(=O)[C@H](CCc1ccccc1)NC(=O)[C@@H](NC(=O)Cc1nnc(N)s1)CC(=O)N1CCCC(CCO2)C1 (stereo partly drawn) [Compound 310, 2-(5-amino-1,3,4-thiadiazol-2-yl)-N-((9S,12S)-54-methyl-8,11,14-trioxo-9-phenethyl-4-oxa-7,10-diaza-1(3,1)-piperidina-5(1,3)-benzenacyclotetradecaphane-12-yl)acetamide]
IC50 [1]: < 100 nM
IC50 [2]: < 100 nM
